For assay [1], the system named is activity of the diazepam in the pentetrazole test. Nature of the assay: antagonism of diazepam in the pentetrazole test. The assay is classed as in vivo. Conditions: Mus musculus, po; counteracts the diazepam effect in 50% of the animals; diazepam 5 mg/kg i.p. 1 hour before, test compound p.o. 15 minutes before pentetrazole 120 mg/kg i.p.; mice. The protocol:
(§1) This property was used to evaluate the test described hereinafter which permits the determination of compounds which are capable of antagonizing the central properties of 1,4-benzodiazepines which have tranquillizing activity.
(§2) The antagonistic activity of the compounds investigated, i.e. their ability to counteract the activity of the diazepam in the pentetrazole test, is determined by counting the mice which suffer convulsive attacks in this test.
In the following Table there are presented the results which have been obtained with representative members of the class of compound defined by formula I in the test previously described. The ED50 is the amount of test compound in mg/kg (p.o.) which in 50% of the animals counteracts the diazepam effect in the above test. Moreover, the Table contains the IC50 value (defined above) for all test compounds listed therein.

Assay [2] has as its target central benzodiazepine receptors. The assay is described as follows: inhibition of the binding of tritiated diazepam at the specific benzodiazepine receptors in the cerebral cortex. Conditions: 50 percent inhibition of the specific binding of the tritiated diazepam. The protocol: The affinity of compounds of formula I to the central benzodiazepine receptors was determined according to the method described in Life Science 20, 2101-2110 (1977) and Science 198, 849-851 (1977). According to this method, the inhibition of the binding of tritiated diazepam at the specific benzodiazepine receptors in the cerebral cortex by the respective test substances is ascertained. The IC50 ("50% inhibiting concentration") is that concentration of the respective test substance which brings about a 50 percent inhibition of the specific binding of the tritiated diazepam at the specific benzodiazepine receptors in the cerebral cortex.

The test system of assay [3] is convulsive attacks in the pentetrazole test. Nature of the assay: pentetrazole test (anticonvulsant activity of diazepam). Conditions: diazepam 5 mg/kg i.p. (supramaximal dosage), more than 900 mice. It is filed as in vivo. How it is done: as §1, §2

The values below come from patent publication US4352818A, “Diazepine derivatives and their use” (Hoffmann-La Roche Inc., priority 1981, dated 1982).

Each structure is given as a SMILES string.

What is called ED50 is the midpoint of the dose-response relation. A low value points to an effect at a small dose. In general, IC50 refers to the concentration at which inhibition is half-maximal. As for `O=C1c2c(Cl)cccc2-n2cnc(Cl)c2C2C=CCN12` (racemic) [(a) H Cl Cl --CH=CH--CH2 -- O (R/S), (R,S)-1,8-dichloro-11,13a-dihydro-9H-imidazo[1,5-a]pyrrolo[2,1-c][1,4]benzodiazepin-9-one], in assay [1], it took a dose of 1 mg/kg to reach the 50% effect level (ED50). Moreover, the IC50 in assay [2] was 3.9 nM. Taken in the same sequence, the figures for `O=C1c2c(Cl)cccc2-n2cncc2C2C=CCN12` (racemic) [(a) H Cl H --CH=CH--CH2 -- O (R/S), (R,S)-8-chloro-11,13a-dihydro-9H-imidazo[1,5-a]pyrrolo[2,1-c][1,4]benzodiazepin-9-one] were 10.9 mg/kg and 240 nM.

`CN1Cc2c(Br)ncn2-c2ccc(F)cc2C1=O` [(a) F H Br H --CH3 O --, 3-bromo-8-fluoro-4,5-dihydro-5-methyl-6H-imidazo[1,5-a][1,4]benzodiazepin-6-one] came in with an ED50 in assay [1] of 7.1 mg/kg. In assay [2], this compound had an IC50 of 51 nM.

Take `CN1Cc2c(Cl)ncn2-c2ccc(F)cc2C1=O` [(a) F H Cl H --CH3 O --, 3-chloro-8-fluoro-4,5-dihydro-5-methyl-6H-imidazo[1,5-a][1,4]benzodiazepin-6-one]: the 50% effect level in assay [1] (ED50) was put at a dose of 2.3 mg/kg. Further, the half-maximal inhibitory concentration (IC50) in assay [2] worked out at 28 nM. On to `COCc1ncn2c1CN(C)C(=O)c1c(Cl)cccc1-2` [(a) H Cl --CH2 OCH3 H --CH3 O --, 7-chloro-4,5-dihydro-3-(methoxymethyl)-5-methyl-6H-imidazo[1,5-a][1,4]benzodiazepin-6-one], for which, in assay [1], the 50% effective dose (ED50) stood at 1.4 mg/kg. In assay [2], this compound came in with an IC50 of 30 nM. Taken in the same sequence, the figures for `CN1Cc2c(Cl)ncn2-c2cccc(Cl)c2C1=O` [(a) H Cl Cl H --CH3 O --, 3,7-dichloro-4,5-dihydro-5-methyl-6H-imidazo[1,5-a][1,4]benzodiazepin-6-one] were 0.9 mg/kg and 3.6 nM. For the compound `CN1Cc2cncn2-c2cccc(Cl)c2C1=O` [(a) H Cl H H --CH3 O --, 7-chloro-4,5-dihydro-5-methyl-6H-imidazo[1,5-a][1,4]benzodiazepin-6-one], the ED50 in assay [1] was found to be 6.2 mg/kg. Moreover, the IC50 in assay [2] came to 110 nM.

The compound `COCc1ncn2c1CN(C)C(=O)c1ccccc1-2` [(a) H H --CH2 OCH3 H --CH3 O --, 4,5-dihydro-3-(methoxymethyl)-5-methyl-6H-imidazo[1,5-a][1,4]benzodiazepin-6-one] yielded an ED50 in assay [1] of 8.9 mg/kg. The 50% inhibitory concentration (IC50) in assay [2] came out at 380 nM. In the case of `CN1Cc2c([N+](=O)[O-])ncn2-c2ccccc2C1=O` [(a) H H --NO2 H --CH3 O --, 4,5-dihydro-5-methyl-3-nitro-6H-imidazo[1,5-a][1,4]benzodiazepin-6-one], the median effective dose (ED50) in assay [1] was determined as 4 mg/kg. This compound gave a half-maximal inhibitory concentration (IC50) in assay [2] of 72 nM.

Consider `O=C1c2ccccc2-n2cnc(Br)c2[C@@H]2CCCN12` [(a) H H Br --(CH2)3 -- O (S), (S)-1-bromo-11,12,13,13a-tetrahydro-9H-imidazo[1,5-a]pyrrolo[2,1-c][1,4]benzodiazepin-9-one], for which, in assay [1], the ED50 turned out to be 9.9 mg/kg. This compound showed a half-inhibitory concentration (IC50) in assay [2] of 48 nM.

In assay [1], `CN1Cc2c(Br)ncn2-c2ccccc2C1=O` [(a) H H Br H --CH3 O --, 3-bromo-4,5-dihydro-5-methyl-6H-imidazo[1,5-a][1,4]benzodiazepin-6-one] displayed an ED50 of 4.5 mg/kg. Further, the 50% inhibitory concentration (IC50) in assay [2] amounted to 34 nM.

Regarding `O=C1c2ccccc2-n2cnc(Cl)c2[C@@H]2CCCN12` [(a) H H Cl --(CH2)3 -- O (S), (S)-1-chloro-11,12,13,13a-tetrahydro-9H-imidazo[1,5-a]pyrrolo[2,1-c][1,4]benzodiazepin-9-one], in assay [1], the ED50 came out at 8 mg/kg. For the same compound, in assay [2], the concentration for half-maximal inhibition (IC50) was 120 nM.

`CN1Cc2c(Cl)ncn2-c2ccccc2C1=O` [(a) H H Cl H --CH3 O --, 3-chloro-4,5-dihydro-5-methyl-6H-imidazo[1,5-a][1,4]benzodiazepin-6-one]: the 50% effect level in assay [1] (ED50) was put at a dose of 1.7 mg/kg. This compound also gave an IC50 in assay [2] of 100 nM.

The compound `CN1Cc2c(Cl)ncn2-c2ccccc2C1=S` [(a) H H Cl H --CH3 S --, 3-chloro-4,5-dihydro-5-methyl-6H-imidazo[1,5-a][1,4]benzodiazepine-6-thione] gave an ED50 in assay [1] of 10.5 mg/kg. In addition, in assay [2], the half-maximal inhibitory concentration (IC50) is 250 nM.

With `CN1Cc2c(I)ncn2-c2ccccc2C1=O` [(a) H H J H --CH3 O --, 4,5-dihydro-3-iodo-5-methyl-6H-imidazo[1,5-a][1,4]benzodiazepin-6-one], the ED50 in assay [1] is 2.5 mg/kg. Moreover, in assay [2], the IC50 is 23 nM.

The compound `O=C1c2sccc2-n2cnc(Cl)c2[C@@H]2CCCN12` [(b) -- -- Cl --(CH2)3 -- O (S), (S)-1-Chloro-10,11,12,12a-tetrahydro-8H-imidazo[5,1-c]pyrrolo[1,2-a]thieno[3,2-e][1,4]diazepin-8-one] registered a 50% effective dose (ED50) in assay [1] of 0.83 mg/kg. Besides, in assay [2], the IC50 amounted to 17 nM.

For the compound `CN1C(=O)CN=C(c2ccccc2)c2cc(Cl)ccc21` [diazepam], the “protection from convulsive attacks” value in assay [3] is recorded as “protects all experimental animals from convulsive attacks”.
